Assay results reported in ChEMBL document CHEMBL1201862, “PubChem BioAssay data set” (2004).
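Protocol summary: plate cells (96-well), add compound at 5 concentrations, incubate 48 h, interpolate endpoints linearly. The concentration for 50% growth inhibition is given as GI50.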 The source made the active and inactive calls. Cut-off read from the data, not from the text of the source: active = GI50 up to about 1.1 µM and inactive = higher.

Columns and labels:
Assay in all cases: DTP human tumour cell line panel, 48 h
OVCAR-5 = test system: OVCAR-5
SR = test system: SR
NCI-H522 = test system: NCI-H522
DU-145 = test system: DU-145
SW-620 = test system: SW-620
UACC-62 = test system: UACC-62
OVCAR-3 = test system: OVCAR-3
UACC-257 = test system: UACC-257
A549 = test system: A549
NCI-H23 = test system: NCI-H23
IGROV-1 = test system: IGROV-1
SNB-75 = test system: SNB-75
M14 = test system: M14
HCT-15 = test system: HCT-15
SF-295 = test system: SF-295
NCI-H460 = test system: NCI-H460
SN12C = test system: SN12C
MDA-MB-231 = test system: MDA-MB-231
SNB-19 = test system: SNB-19
BT-549 = test system: BT-549

| Structure (SMILES) | GI50 (OVCAR-5) | GI50 (SR) | GI50 (NCI-H522) | GI50 (DU-145) | GI50 (SW-620) | GI50 (UACC-62) | GI50 (OVCAR-3) | GI50 (UACC-257) | GI50 (A549) | GI50 (NCI-H23) | GI50 (IGROV-1) | GI50 (SNB-75) | GI50 (M14) | GI50 (HCT-15) [µM] | GI50 (SF-295) | GI50 (NCI-H460) | GI50 (SN12C) | GI50 (MDA-MB-231) | GI50 (SNB-19) | GI50 (BT-549) |
| --- | --- | --- | --- | --- | --- | --- | --- | --- | --- | --- | --- | --- | --- | --- | --- | --- | --- | --- | --- | --- |
| Clc1ccccc1/C=C\C1(c2ccccc2)OCCO1 | 20 µM (inactive) | 3.58 µM (inactive) | 13.4 µM (inactive) | 16.7 µM (inactive) | 16.1 µM (inactive) | 15.7 µM (inactive) | 17.7 µM (inactive) | 16.7 µM (inactive) | > 100 µM (inactive) | 10.2 µM (inactive) | 14.2 µM (inactive) | 19 µM (inactive) | > 100 µM (inactive) | 12.6 | 16.7 µM (inactive) | 16.8 µM (inactive) | 18.1 µM (inactive) | 12.7 µM (inactive) |  |  |
| CC1(C)S[C@@H]2[C@H](N3C(=O)c4ccccc4C3=O)CN2[C@H]1NC(=O)N[C@@H]1N2C[C@@H](N3C(=O)c4ccccc4C3=O)[C@H]2SC1(C)C | > 100 µM (inactive) |  | > 100 µM (inactive) | > 100 µM (inactive) | > 100 µM (inactive) | > 100 µM (inactive) | > 100 µM (inactive) |  | 73.3 µM (inactive) | > 100 µM (inactive) | > 100 µM (inactive) | 58.2 µM (inactive) | > 100 µM (inactive) | > 100 | 75.7 µM (inactive) | > 100 µM (inactive) | > 100 µM (inactive) | 52.7 µM (inactive) | 43.2 µM (inactive) |  |
| CN(C)CCNC(=O)c1cccc2c(NC(CCCNC(=N)N)C(=O)O)c3ccccc3nc12 (stereo unspecified) | 9.95 µM (inactive) | 1 µM (active) | 3.75 µM (inactive) | 17 µM (inactive) | 5.4 µM (inactive) | 15.8 µM (inactive) | 18.1 µM (inactive) |  | 4.8 µM (inactive) | 5.53 µM (inactive) | 4.59 µM (inactive) | 8.83 µM (inactive) | 14 µM (inactive) | 6.37 | 7.57 µM (inactive) |  | 10.5 µM (inactive) | 9.27 µM (inactive) | 3.94 µM (inactive) |  |
| COc1cccc([C@@H]2C/C(=N\NC(=O)C(=O)N[C@@H](C)c3ccccc3)c3cc4c(cc3N2)OCO4)c1 | > 100 µM (inactive) |  |  | > 100 µM (inactive) | 16 µM (inactive) | 17.1 µM (inactive) | 30.1 µM (inactive) | 15.8 µM (inactive) | 43.9 µM (inactive) |  |  | 22.5 µM (inactive) | 34.1 µM (inactive) | 27.4 | 36.6 µM (inactive) |  | 42 µM (inactive) | 67.5 µM (inactive) | 35 µM (inactive) |  |
| CCOC(=O)CSc1[nH]c2nc(C)nc(Cl)c2c1C#N |  | > 10 µM (inactive) |  | > 10 µM (inactive) | > 10 µM (inactive) | > 10 µM (inactive) |  | > 10 µM (inactive) | > 10 µM (inactive) | > 10 µM (inactive) | > 10 µM (inactive) | > 10 µM (inactive) | > 10 µM (inactive) | > 10 | > 10 µM (inactive) |  | > 10 µM (inactive) | > 10 µM (inactive) |  |  |
| COc1ccccc1N1CCN(Cn2c(=O)oc3cccnc32)CC1 | > 100 µM (inactive) | 40.3 µM (inactive) | > 100 µM (inactive) | > 100 µM (inactive) | 36.4 µM (inactive) |  | > 100 µM (inactive) | > 100 µM (inactive) | > 100 µM (inactive) | > 100 µM (inactive) | > 100 µM (inactive) | 30 µM (inactive) | > 100 µM (inactive) | > 100 | > 100 µM (inactive) | > 100 µM (inactive) |  | > 100 µM (inactive) | > 100 µM (inactive) |  |
| Cn1c(=O)c2c(ncn2CCNC(CO)C(O)c2ccc([N+](=O)[O-])cc2)n(C)c1=O (stereo unspecified) |  | > 100 µM (inactive) | > 100 µM (inactive) |  | > 10 µM (inactive) | > 100 µM (inactive) | > 100 µM (inactive) | > 100 µM (inactive) | > 100 µM (inactive) | > 100 µM (inactive) | > 10 µM (inactive) |  | > 100 µM (inactive) | > 100 | > 100 µM (inactive) | > 100 µM (inactive) | > 100 µM (inactive) | > 100 µM (inactive) | > 100 µM (inactive) | > 100 µM (inactive) |
| CN1N=C(c2ccncc2)OC1c1ccccc1F (stereo unspecified) | > 100 µM (inactive) |  | > 100 µM (inactive) | > 100 µM (inactive) | > 100 µM (inactive) | > 100 µM (inactive) | > 100 µM (inactive) |  | > 100 µM (inactive) | > 100 µM (inactive) | > 100 µM (inactive) |  | > 100 µM (inactive) | > 100 | > 100 µM (inactive) | > 100 µM (inactive) | > 100 µM (inactive) | > 100 µM (inactive) | > 100 µM (inactive) |  |
| CCc1oc2ccc(OC)c3c2c1C=CC=C3 | > 100 µM (inactive) | > 100 µM (inactive) | > 100 µM (inactive) |  | > 100 µM (inactive) | > 100 µM (inactive) | > 100 µM (inactive) | > 100 µM (inactive) | > 100 µM (inactive) | > 100 µM (inactive) | > 100 µM (inactive) | 60.3 µM (inactive) | > 100 µM (inactive) | > 100 | > 100 µM (inactive) | > 100 µM (inactive) | > 100 µM (inactive) |  | > 100 µM (inactive) |  |
| CCN(C(=N)C#N)c1ccccc1 | > 100 µM (inactive) | > 100 µM (inactive) | > 100 µM (inactive) |  | 20.5 µM (inactive) | > 72.3 µM (inactive) | > 100 µM (inactive) | > 59.2 µM (inactive) | > 100 µM (inactive) | > 100 µM (inactive) | > 100 µM (inactive) | > 100 µM (inactive) | > 100 µM (inactive) | > 45.4 | > 100 µM (inactive) | > 63.8 µM (inactive) | > 100 µM (inactive) |  | > 100 µM (inactive) |  |
| CC1C2=C(O)CC(C)(C)CC2=NC2=C1C(=O)CC(C)(C)C2 (stereo unspecified) | > 100 µM (inactive) | > 100 µM (inactive) |  |  | > 100 µM (inactive) | > 100 µM (inactive) | > 100 µM (inactive) |  | > 100 µM (inactive) | > 100 µM (inactive) | > 100 µM (inactive) | 83 µM (inactive) | > 100 µM (inactive) | > 100 |  | > 100 µM (inactive) | > 100 µM (inactive) |  | > 100 µM (inactive) | > 100 µM (inactive) |
| O=C1CC(c2ccc(Cl)cc2)C2(C(=O)NC(=S)NC2=O)C(c2ccc(Cl)cc2)C1 (stereo unspecified) | 19.6 µM (inactive) | 30.3 µM (inactive) |  | 37.2 µM (inactive) | 21.5 µM (inactive) | 16.1 µM (inactive) | 17.4 µM (inactive) | 18.5 µM (inactive) | 26.9 µM (inactive) | 18.8 µM (inactive) |  | 15.1 µM (inactive) | 22.2 µM (inactive) | 23.7 | 17.6 µM (inactive) | 14.9 µM (inactive) | 18.2 µM (inactive) | 20.2 µM (inactive) | 18.4 µM (inactive) |  |
| COC1(CC[C@@H](C)COC2OC(CO)C(O)C(O)C2O)OC2C[C@H]3[C@@H]4CC[C@H]5C[C@@H](OC6OC(CO)C(OC7OC(CO)C(O)C(O)C7O)C(O)C6OC6OC(C)C(O)C(O)C6O)[C@H](O)C[C@]5(C)[C@H]4CC[C@]3(C)C2[C@@H]1C (stereo partly specified) | 2.17 µM (inactive) | 2.77 µM (inactive) | 2.2 µM (inactive) | 2.01 µM (inactive) | 2.06 µM (inactive) | 1.85 µM (inactive) | 1.82 µM (inactive) | 1.97 µM (inactive) | 1.92 µM (inactive) |  | 1.74 µM (inactive) | 1.77 µM (inactive) | 1.84 µM (inactive) |  | 1.8 µM (inactive) | 3.08 µM (inactive) | 1.86 µM (inactive) | 1.95 µM (inactive) | 1.87 µM (inactive) |  |
| Cc1cc(-c2ccc(Cl)cc2)c(C#N)c(=S)n1C1OC(CO)C(O)C(O)C1O (stereo unspecified) | > 100 µM (inactive) | > 100 µM (inactive) | > 100 µM (inactive) | > 100 µM (inactive) | > 100 µM (inactive) | > 100 µM (inactive) | > 100 µM (inactive) | > 100 µM (inactive) | > 100 µM (inactive) | > 100 µM (inactive) | > 100 µM (inactive) | 20.1 µM (inactive) | > 100 µM (inactive) | > 100 | > 100 µM (inactive) | > 100 µM (inactive) | > 100 µM (inactive) | > 100 µM (inactive) | > 100 µM (inactive) |  |
| CCCCC(C(=O)C(=O)NC1C2CC3CC(C2)CC1C3)C(=O)C(C)C (stereo unspecified) | > 100 µM (inactive) | > 100 µM (inactive) | > 100 µM (inactive) |  | > 100 µM (inactive) | > 100 µM (inactive) | > 100 µM (inactive) | > 100 µM (inactive) | > 100 µM (inactive) | > 100 µM (inactive) | > 100 µM (inactive) | > 100 µM (inactive) | > 100 µM (inactive) | > 100 | > 100 µM (inactive) | > 100 µM (inactive) | > 100 µM (inactive) |  | > 100 µM (inactive) |  |
| CCOC(=O)N1C/C(=C\c2ccc(N(C)C)cc2)C(=O)/C(=C/c2ccc(N(C)C)cc2)C1 | > 100 µM (inactive) | > 100 µM (inactive) | > 100 µM (inactive) |  | > 100 µM (inactive) | > 100 µM (inactive) | > 100 µM (inactive) | > 100 µM (inactive) | > 100 µM (inactive) | > 100 µM (inactive) | > 100 µM (inactive) | > 100 µM (inactive) | > 100 µM (inactive) | > 100 | > 100 µM (inactive) | > 100 µM (inactive) | > 100 µM (inactive) |  | > 100 µM (inactive) |  |
